Counter-ions that a name gives are not always drawn. Like-named read-outs stand apart in the source and are kept apart here.
Key:
[1] = system: PANC-1 cells (zebrafish pancreatic cancer transplant model); assay: In vivo cytotoxicity, zebrafish pancreatic cancer transplant model; conditions: 48 h, n = 10
PANC-1 = assay: In vitro cytotoxicity, CCK-8 assay, PANC-1; type: cell-based; conditions: Homo sapiens, PANC-1, 48 h
HCT-8 cells = assay: In vitro cytotoxicity, CCK-8 assay, HCT-8; type: cell-based; conditions: Homo sapiens, HCT-8, 48 h
Caco-2 = assay: In vitro cytotoxicity, CCK-8 assay, Caco-2; type: cell-based; conditions: Homo sapiens, Caco-2, 48 h
[2] = system: C. difficile infection (CDI); conditions: cited from earlier work; for recurrence of CDI: patients, after treatment; for response in patients: treatment of mild to moderate episodes of CDI
CD strain ATCC 43255 = assay: CDI mouse model (survival, recurrence, weight, clinical scores)

C=C1/C=C/C(=O)N(C)CC(=O)N[C@@H]([C@H](O)C(N)=O)C(=O)O[C@@H]([C@H](C)CCCCCCCCCCCC(C)CC)[C@H](C)C(=O)N1 (stereo partly shown) [Rakicidin B1]
Fluorescence Intensity (S, Mean ± SE) ([1]; 22.4 nM in water): 773,141 ± 49,850
Fluorescence Intensity (S, Mean ± SE) ([1]; 67.2 nM in water): 662,225 ± 41,743
Fluorescence Intensity (S, Mean ± SE) ([1]; 201.5 nM in water): 527,824 ± 34,172
inhibition at 0.0224 µM ([1]; Danio rerio, PANC-1, 22.4 nM in water, read-out: Inhibition Rate (%)): 17%
inhibition at 0.0672 µM ([1]; Danio rerio, PANC-1, 67.2 nM in water, read-out: Inhibition Rate (%)): 29%
inhibition at 0.2015 µM ([1]; Danio rerio, PANC-1, 201.5 nM in water, read-out: Inhibition Rate (%)): 43%
IC50 (PANC-1; read-out: IC50 PANC-1, hypoxia (5% CO2, 95% N2), 48 h, CCK-8): 486 nM
IC50 (PANC-1; read-out: IC50 PANC-1, normoxia, 48 h drug exposure, CCK-8): 815 nM
IC50 (HCT-8 cells; read-out: IC50 HCT-8, hypoxia (5% CO2, 95% N2), 48 h, CCK-8): 430 nM
IC50 (HCT-8 cells; read-out: IC50 HCT-8, normoxia, 48 h drug exposure, CCK-8): 519 nM
IC50 (Caco-2; read-out: IC50 Caco-2, hypoxia (5% CO2, 95% N2), 48 h, CCK-8): 457 nM
IC50 (Caco-2; read-out: IC50 Caco-2, normoxia, 48 h drug exposure, CCK-8): 586 nM

Cc1ncc([N+](=O)[O-])n1CCO [metronidazole]
recurrence of CDI [2]: 25–30%
response in patients [2]: approximately 90%

CN[C@H](CC(C)C)C(=O)N[C@H]1C(=O)N[C@@H](CC(N)=O)C(=O)N[C@H]2C(=O)N[C@H]3C(=O)N[C@H](C(=O)N[C@H](C(=O)O)c4cc(O)cc(O)c4-c4cc3ccc4O)[C@H](O)c3ccc(c(Cl)c3)Oc3cc2cc(c3O[C@@H]2O[C@H](CO)[C@@H](O)[C@H](O)[C@H]2O[C@H]2C[C@](C)(N)[C@H](O)[C@H](C)O2)Oc2ccc(cc2Cl)[C@H]1O [vancomycin]
mortality rate after stopping treatment (recurrence of infection) (CD strain ATCC 43255; C57BL/6 mice, vancomycin 20 mg/kg once a day for seven days, monitored until day 21): 40%
body weight changes and clinical scores after stopping treatment (CD strain ATCC 43255; infected C57BL/6 mice, after seven-day treatment, until day 21): significant weight loss and a sharp increase in clinical scores
body weight changes and clinical scores while receiving treatment (CD strain ATCC 43255; infected C57BL/6 mice, during seven-day treatment): did not experience weight loss or an increase in clinical scores
recurrence of infection after treatment ended (CD strain ATCC 43255; infected C57BL/6 mice, monitored until day 21): recurrence of infection is observed
recurrence of CDI [2]: 25–30%
response in patients [2]: approximately 90%

Nc1ccn([C@@H]2O[C@H](CO)[C@@H](O)C2(F)F)c(=O)n1 [gemcitabine hydrochloride]
Fluorescence Intensity (S, Mean ± SE) ([1]; 66.7 µM in water): 540,311 ± 59,245 ^1
inhibition at 66.7 µM ([1]; Danio rerio, PANC-1, 66.7 µM in water, read-out: Inhibition Rate (%)): 42%
